Assay results published in EP4772530A1, “PEPTIDE TARGETING SOMATOSTATIN RECEPTOR, DRUG CONJUGATE AND USE THEREOF” (Mainline Biosciences (Shanghai) Co., Ltd., priority 2023, dated 2025).

Tests used:
Format in all cases: cell-based
[1] = target: T1, SSTR2 (Homo sapiens, UniProt P30874); test: SSTR2 cAMP test; details: Max Dose 50000 nM
T1 construct: expressed in transfected cells; host or cells: CHO cells (SSTR2/CHO)
Description: • 1) Compound preparation: The test compound was diluted by 4-fold with DMSO to obtain 10 different concentration points. Approximately 100 nL of the diluted compound was then transferred to a cell reaction plate and centrifuged for later use. • 2) Cell preparation:The cultured SSTR2/CHO cells were collected into a sterile centrifuge tube, and the supernatant was discarded by centrifugation. • 3) The cells were resuspended in assay buffer, counted using a Vi-cell counter, and diluted with assay buffer. • 4) Approximately 100 nL of 100 µM Forskolin was transferred into the cell reaction plate using an Echo and centrifuged. Then, 10 µL of assay buffer containing the cells was added and incubated. • 5) Approximately 10 µL of cAMP detection reagent solution was added to the corresponding wells of the cell reaction plate, and incubated at room temperature in the dark. • 6) The plate was read using a microplate reader. The final value was determined as the ratio of OD at 665 nm to that at 615 nm. • 7) The cAMP value was calculated for each well: Activity (%)=(signal value of sample well - mean signal value of low-signal control wells)/ (mean signal value of high-signal control wells - mean signal value of low-signal control wells). Fitting was performed using the "Nonlinear regression (curve fit)-log(agonist) vs. response -- Variable slope" model in GraphPad Prism 5.0, with the log-transformed compound concentration on the x-axis and cAMP activation rate on the y-axis. The EC50 value of the sample was calculated accordingly. Table 2: SSTR2 cAMP Test Results

[2] = system: HL-60; test: Cell killing in HL-60 by CCK-8; details: HL-60, 48 h
Description: • a) Cell line: HL-60 • b) Procedure • (1) Normally cultured HL-60 cells in the logarithmic growth phase were centrifuged at 800 rpm for 5 min to discard the supernatant. Approximately 3 mL of normal medium was added to resuspend the cell pellet by gently pipetting up and down. The cells were then counted using a cell counter and inoculated onto a 96-well plate. • (2) Sample solutions with different concentration gradients were prepared. Approximately 10 µL of each solution was added to the 96-well plate, with 3 to 6 replicate wells for each concentration, and incubated in a 5% CO2 incubator at 37°C for 48 h. • (3) CCK-8 was equilibrated to room temperature before use, and 10 µL of CCK-8 solution was added to each well. • (4) The plate was incubated in the incubator for 0.5-4 h in the dark, with the incubation time depending on experimental conditions such as cell type and density. • (5) The absorbance was measured at 450 nm using a microplate reader. • c) Data analysis Cell viability = [(As−Ab)/(Ac−Ab)] × 100% [formula] Inhibition% = [(Ac−As)/(Ac−Ab)] × 100% [formula] • As: absorbance of sample well (containing cells + medium + CCK-8 solution + drug solution); • Ac: absorbance of control well (containing cells + medium + CCK-8 solution); • Ab: absorbance of blank well (containing medium + CCK-8 solution); • The results were processed and analyzed using Excel and Graphpad Prism to obtain the IC50. Table 4: Test Results of Cell Killing in HL-60 for 48 h

[3] = system: NCI-H69; test: Cell killing in NCI-H69 by CGT (CellTiter-Glo); details: NCI-H69, 96 h; Inh% relative to DMSO control, 4-parameter fit
Description: Approximately 5 µL of the PDC was added to the corresponding wells of the plate, and compared with DMSO (control, without the PDC of the present application), PTX, MMAE, and Dxd wells. The final concentration of DMSO in each well was 0.2%; • (5) The cells were incubated in a 5% CO2 incubator at 37°C for 96 h; • (6) The cell culture plate was equilibrated to room temperature, and 50 µL of CellTiter-Glo® Reagent was added to each well; • (7) The plate was placed on a shaker for 2 min to ensure complete cell lysis; • (8) After mixing, the plate was placed at room temperature to react for 10 min. The fluorescence value (in RLU) was read when the signal became stable. • c) Data analysis • (1) The inhibition (Inh %) relative to the DMSO control was calculated as follows: Inhibition (Inh%)= 100 -(RLU of compound - RLU of DMSO control)/ (RLU of DMSO control - RLU of blank)*100% • (2) The data were analyzed using Graphpad 5.0 software. A 4-parameter equation was fitted to generate a concentration-response curve to obtain the IC50. Table 3: Test Results of Cell Killing in NCI-H69

T1 sequence (P30874 whole entry): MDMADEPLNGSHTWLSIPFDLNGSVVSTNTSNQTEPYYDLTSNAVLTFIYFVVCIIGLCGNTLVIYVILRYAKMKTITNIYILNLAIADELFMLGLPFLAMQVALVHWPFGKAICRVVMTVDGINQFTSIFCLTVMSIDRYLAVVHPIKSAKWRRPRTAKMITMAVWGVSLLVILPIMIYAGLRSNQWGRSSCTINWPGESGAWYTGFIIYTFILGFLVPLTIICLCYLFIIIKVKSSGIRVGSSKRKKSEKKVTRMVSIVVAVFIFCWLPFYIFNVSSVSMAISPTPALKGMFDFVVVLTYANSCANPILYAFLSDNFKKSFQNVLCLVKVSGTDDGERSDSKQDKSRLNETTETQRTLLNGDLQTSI

CC[C@H](C)[C@@H]([C@@H](CC(=O)N1CCC[C@H]1[C@H](OC)[C@@H](C)C(=O)N[C@H](C)[C@@H](O)c1ccccc1)OC)N(C)C(=O)[C@@H](NC(=O)[C@H](C(C)C)N(C)C(=O)OCc1ccc(NC(=O)[C@H](CCCNC(N)=O)NC(=O)[C@@H](NC(=O)CCCCCN2C(=O)CC(SC[C@H](NC(C)=O)C(=O)NCCOCCOCC(=O)N[C@@H](CCCNC(=N)N)C(=O)N[C@@H](CCCNC(=N)N)C(=O)N[C@@H](CC(C)C)C(=O)N[C@@H](Cc3ccccc3)C(=O)N[C@H]3CSSC[C@@H](C(=O)N[C@H](C(=O)N[C@@H](Cc4c[nH]c5ccccc45)C(=O)N[C@@H](CCCNC(=N)N)C(=O)N[C@@H](CC(=O)O)C(N)=O)[C@@H](C)O)NC(=O)[C@H]([C@@H](C)O)NC(=O)[C@H](CCCCN)NC(=O)[C@@H](Cc4c[nH]c5ccccc45)NC(=O)[C@H](Cc4ccc(O)cc4)NC3=O)C2=O)C(C)C)cc1)C(C)C (stereo partly drawn) [Example 1, Cys(MC-Val-Cit-PABC-MMAE)-AEEA-Arg-Arg-Leu-Phe-[Cys-Tyr-D-Trp-Lys-Thr-Cys]-Thr-Trp-Arg-Asp-NH2]
activity at 50 µM [1]: 93.9% | Bottom (Inhibition at Lowest Point) [2]: 1.71 | Top (Inhibition at Highest Point) [2]: 86.42 | Bottom (Inhibition at Lowest Point) [3]: 2.17 | Top (Inhibition at Highest Point) [3]: 79.37
